Measurements as given in PubChem BioAssay (NCI).
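Assay format: 96-well plates, 48-hour exposure. Definition used: TGI = concentration required for complete inhibition of growth.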

Legend:
Experiment in all cases: growth of human tumour cells (NCI), 48 h
[1] = system: CAKI-1 renal
[2] = system: HCC-2998 colon
[3] = system: RXF 393 renal
[4] = system: ACHN renal
[5] = system: HOP-92 NSCLC
[6] = system: NCI-H460 lung
[7] = system: OVCAR-4 ovarian
[8] = system: A498 renal
[9] = system: UACC-62 melanoma
[10] = system: SK-MEL-28 melanoma
[11] = system: HT29 colon
[12] = system: SN12C renal
[13] = system: SW-620 colon
[14] = system: HCT-15 colon
[15] = system: HS 578T breast
[16] = system: M14 melanoma
[17] = system: COLO 205 colon
[18] = system: SF-539 CNS
[19] = system: CCRF-CEM leukemia
[20] = system: SF-268 CNS
[21] = system: MOLT-4 leukemia
[22] = system: SNB-75 CNS
[23] = system: NCI-H23 lung
[24] = system: IGROV1 ovarian
[25] = system: OVCAR-5 ovarian
[26] = system: UACC-257 melanoma
[27] = system: SNB-19 CNS
[28] = system: RPMI-8226 leukemia
[29] = system: MDA-N
[30] = system: MDA-MB-231 breast
[31] = system: KM12 colon
[32] = system: MCF7 breast
[33] = system: TK-10 renal
[34] = system: SK-MEL-2 melanoma
[35] = system: BT-549 breast
[36] = system: SR leukemia
[37] = system: T-47D breast
[38] = system: HCT-116 colon
[39] = system: UO-31 renal
[40] = system: OVCAR-8 ovarian
[41] = system: MALME-3M melanoma
[42] = system: A549 NSCLC
[43] = system: NCI/ADR-RES ovarian
[44] = system: U251 CNS
[45] = system: PC-3 prostate
[46] = system: 786-0 renal
[47] = system: NCI-H226 lung
[48] = system: SK-MEL-5 melanoma
[49] = system: NCI-H522 lung
[50] = system: DU-145 prostate
[51] = system: EKVX NSCLC
[52] = system: K-562 leukemia
[53] = system: HL-60(TB) leukemia
[54] = system: MDA-MB-435
[55] = system: LOX IMVI melanoma
[56] = system: SF-295 CNS
[57] = system: SK-OV-3 ovarian
[58] = system: HOP-62 NSCLC
[59] = system: OVCAR-3 ovarian

`O=C1C(Cl)C2(CC(/C=C/c3cccs3)=NN2c2cccc(S(=O)(=O)O)c2)N1c1nc2ccccc2s1` (stereo not drawn) gave a TGI [1] greater than 100 µM, a TGI [2] greater than 100 µM and a TGI [3] greater than 100 µM. The TGI [4] was greater than 100 µM, the TGI [5] was greater than 100 µM and the TGI [6] was greater than 100 µM. For the same molecule, the TGI [7] was greater than 100 µM, the TGI [8] was greater than 100 µM and the TGI [9] was greater than 100 µM. For the same molecule, the TGI [10] was greater than 100 µM, the TGI [11] was greater than 100 µM and the TGI [12] was greater than 100 µM. It also gave a TGI [13] greater than 100 µM, a TGI [14] greater than 100 µM and a TGI [15] greater than 100 µM. The TGI [16] was greater than 100 µM, the TGI [17] was greater than 100 µM and the TGI [18] was greater than 100 µM. The TGI [19] was 78.2 µM, the TGI [20] was greater than 100 µM and the TGI [21] was greater than 100 µM. The TGI [22] was greater than 100 µM, the TGI [23] was greater than 100 µM and the TGI [24] was greater than 100 µM. The TGI [25] was greater than 100 µM, the TGI [26] was greater than 100 µM and the TGI [27] was greater than 100 µM. It also gave a TGI [28] greater than 100 µM, a TGI [29] greater than 100 µM and a TGI [30] greater than 100 µM. The TGI [31] was greater than 100 µM, the TGI [32] was greater than 100 µM and the TGI [33] was greater than 100 µM. It also gave a TGI [34] greater than 100 µM, a TGI [35] greater than 100 µM and a TGI [36] greater than 100 µM. For the same molecule, the TGI [37] was greater than 100 µM, the TGI [38] was greater than 100 µM and the TGI [39] was 23.8 µM. The TGI [40] was greater than 100 µM, the TGI [41] was greater than 100 µM and the TGI [42] was greater than 100 µM. For the same molecule, the TGI [43] was greater than 100 µM, the TGI [44] was greater than 100 µM and the TGI [45] was greater than 100 µM. For the same molecule, the TGI [46] was greater than 100 µM, the TGI [47] was greater than 100 µM and the TGI [48] was greater than 100 µM. It also gave a TGI [49] of 38.5 µM, a TGI [50] greater than 100 µM and a TGI [51] greater than 100 µM. For the same molecule, the TGI [52] was greater than 100 µM, the TGI [53] was greater than 100 µM and the TGI [54] was greater than 100 µM. For the same molecule, the TGI [55] was greater than 100 µM.
`O=[N+]([O-])/C(C(Cl)=C(Cl)Cl)=C(/Br)SCc1ccccc1` gave a TGI [1] of 3.65 µM, a TGI [2] of 21.1 µM and a TGI [3] of 4.01 µM. The TGI [4] was 6.85 µM, the TGI [5] was 5.28 µM and the TGI [6] was 24.1 µM. The TGI [7] was 8.19 µM, the TGI [8] was 15.2 µM and the TGI [9] was 16.1 µM. It also gave a TGI [56] of 31.5 µM, a TGI [10] of 4.09 µM and a TGI [11] of 4.92 µM. For the same molecule, the TGI [12] was 5.8 µM, the TGI [57] was 36.4 µM and the TGI [13] was 4.16 µM. It also gave a TGI [14] of 4.98 µM, a TGI [15] of 47.7 µM and a TGI [16] of 5.79 µM. For the same molecule, the TGI [17] was 3.43 µM, the TGI [18] was 21.4 µM and the TGI [19] was 0.633 µM. It also gave a TGI [20] of 7.2 µM, a TGI [21] of 1.03 µM and a TGI [22] of 9.02 µM. It also gave a TGI [23] of 12 µM, a TGI [24] of 13.3 µM and a TGI [25] of 18.5 µM. It also gave a TGI [26] of 11.3 µM, a TGI [27] of 27.7 µM and a TGI [28] of 3.39 µM. For the same molecule, the TGI [29] was 4.04 µM, the TGI [30] was 6.06 µM and the TGI [31] was 28.5 µM. The TGI [32] was 9.11 µM, the TGI [33] was 9.61 µM and the TGI [34] was 13.8 µM. The TGI [35] was 4.22 µM, the TGI [36] was 4.2 µM and the TGI [58] was 41.7 µM. The TGI [37] was 13.5 µM, the TGI [38] was 4.13 µM and the TGI [39] was 5.72 µM. It also gave a TGI [41] of 11.9 µM, a TGI [42] of 15.2 µM and a TGI [43] of 15.3 µM. The TGI [44] was 14.5 µM, the TGI [45] was 7.21 µM and the TGI [46] was 4.64 µM. The TGI [59] was 5.02 µM, the TGI [47] was 14.9 µM and the TGI [48] was 16.4 µM. For the same molecule, the TGI [49] was 4.49 µM, the TGI [50] was 25.7 µM and the TGI [51] was 12.5 µM. It also gave a TGI [52] of 2.04 µM, a TGI [53] of 0.905 µM and a TGI [54] of 2.94 µM. It also gave a TGI [55] of 4.24 µM.
